Test results from patent publication US6310095A, “Inhibitors of protein isoprenyl transferases” (University of Pittsburgh, priority 1998, dated 2001).

Target: T1, protein farnesyltransferase (Rattus norvegicus, UniProt Q02293+Q04631)
T1 construct: Rat brain protein farnesyltransferase activity is measured; from tissue; host or cells: rat brain; purified according to Reiss et al., Cell 62:81-88 (1990), steps one through three
Test: in vitro inhibition of protein farnesyltransferase (scintillation proximity assay, biotin-K Ras B fragment)
Type: biochemical
Details: for inhibition at 0.01 µM: read-out: % inhibition of farnesyltransferase
In short: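 Rat brain enzyme, purified through three steps, in a scintillation proximity assay kit with biotin-K Ras B fragment substrate at 0.1 mM final. Value is % inhibition of farnesylation.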

% inhibition of farnesyltransferase (at 1 × 10^-6 M) | % inhibition of farnesyltransferase (at 1 × 10^-8 M) | Compound | other results
92% | – | CSCC[C@H](NC(=O)c1ccc(CN2CCC(OCc3ccccc3)C2)cc1-c1ccccc1C)C(=O)O (stereo partly shown) [Example 988] | –
88% | – | CSCC[C@H](NC(=O)c1ccc(CN2CCCC(OCc3ccccc3)C2)cc1-c1ccccc1C)C(=O)O (stereo partly shown) [Example 989] | –
– | – | CSCC[C@H](NC(=O)c1ccc(CN2CCCC(OCC3CCCCC3)C2)cc1-c1ccccc1C)C(=O)O (stereo partly shown) [Example 990] | % inhibition of farnesyltransferase (at 1 × 10^-7 M): 84%
– | 69% | CSCC[C@H](NC(=O)c1ccc(CN2CCC[C@H]2COc2ccccc2)cc1-c1ccccc1C)C(=O)O [Example 991] | –
– | 93% | CSCC[C@H](NC(=O)c1ccc(CN2CCC[C@H]2COCC2CCCCC2)cc1-c1ccccc1C)C(=O)O [Example 992] | –
– | – | CSCC[C@H](NC(=O)c1ccc(CN2CCC[C@@H]2COCc2ccccc2)cc1-c1ccccc1C)C(=O)O [Example 993] | % inhibition of farnesyltransferase (at 1 × 10^-7 M): 90%
– | 83% | CSCC[C@H](NC(=O)c1ccc(CO[C@H](CSC(C)(C)C)Cc2ccccc2)cc1-c1ccccc1C)C(=O)O [Example 994] | –
– | – | CCSC[C@H](CCc1ccccc1)NCc1ccc(C(=O)N[C@@H](CCSC)C(=O)O)c(-c2ccccc2C)c1 [Example 995] | inhibition at 0.01 µM (at 1 × 10^-8 M): 92%
– | – | CCCCS(=O)(=O)N(Cc1ccc(C(=O)N[C@@H](CCSC)C(=O)O)c(-c2ccccc2C)c1)CC1CCCCC1 [Example 996, N-[4-(N-cyclohexylmethyl-N-butanesulfonylaminomethyl)-2-(2-methylphenyl)benzoyl]methionine] | inhibition at 0.01 µM (at 1 × 10^-8 M): 80%

Compound | % inhibition of farnesyltransferase (at 1 × 10^-6 M) | % inhibition of farnesyltransferase (at 1 × 10^-8 M) | other results
N-[4-(3-furan-2-yl-2-phenylprop-2-en-1-ylaminomethyl)-2-(2-methylphenyl)benzoyl]methionine lithium salt [Example 537] | 97% | – | –
